The values below come from publication PMC10945501, “Development and In Vivo Evaluation of Small-Molecule Ligands for Positron Emission Tomography of Immune Checkpoint Modulation Targeting Programmed Cell Death 1 Ligand 1” (Journal of Medicinal Chemistry, 2024).

The test system of one data set is PD-L1. The settings on record: cited from earlier work.
For data set [1], the system named is PD-L1-negative (CHO) cells. Description: Competitive radioligand binding assay with [^89Zr]Zr-atezolizumab, PD-L1-negative cells. Details: species or system Chinese hamster. How it is done:
When 5a and 5c were administered at their highest noncytotoxic concentrations, a 50% blockade of antibody binding was observed (p = 0.034, p = 0.025, respectively).
Nonspecific binding of MultiScreen plates (Merck KGaA, Darmstadt, Germany) was blocked with additive-free Ham’s F-12 medium for 30 min, followed by the addition of 2 × 10^5 CHO-K1 (ATCC, Manassas, USA) or CHO-hPD-L1 cells in 150 μL of additive-free Ham’s F-12 medium per well. […] Supernatant was removed after 60 min of incubation using the MultiScreenHTS vacuum filtration system (Merck KGaA, Darmstadt, Germany) and cells were washed twice with DPBS. After drying, filters were punched and measured in a Wizard^2 γ counter (PerkinElmer, Waltham, USA).

A further data set concerns CHO-hPD-L1 cells. Description: MTT cell viability assay. Type of data set: cell-based, Chinese hamster. Particulars: Cricetulus griseus, 24 h. In general terms: Formazan colour is commonly taken as a measure of viable cells.
A short description of data set [2]: Lipophilicity by HPLC method (μHPLC logD). The settings on record: for chromatographic logD: pH 7.4, μHPLC logD; for μHPLC logD: pH 7.4.
A further data set deals with T1, PD-L1 (CHO-hPD-L1 cells) (Homo sapiens, UniProt Q9NZQ7).
T1 construct: host or cells: CHO (Chinese hamster ovary) cells, kept under G418 selection
Description: Competitive radioligand binding assay with [^89Zr]Zr-atezolizumab, PD-L1-positive cells.

In a further data set the target is T2, human PD-L1 (Homo sapiens, UniProt Q9NZQ7).
T2 construct: purchased Cisbio Bioassays SAS, Codolet, France 64PD1PEG
Description: HTRF PD-1/PD-L1 binding assay (cell-free). Particulars: for IC50: cell-free competitive PD-1/PD-L1 HTRF, mean ± SD, read-out: IC50 (hPD-L1 binding affinity, HTRF); for fold decrease in affinity by fluoroethylation / fluoroethyl carbamylation at R3*: pairs 4f vs 5h, 4j vs 5j. For orientation: Time-resolved FRET reads energy transfer from a long-lived donor to a nearby acceptor.

Where [3] appears, read: literature IC50 as stated in the original patent, read-out: Lit. IC50.
Where [4] appears, read: read-out: IC50 (Figure 1, previously reported ligands).

Like-named read-outs stand apart in the source and are kept apart here. Bounds are passed on as bounds.

T1 sequence (Q9NZQ7 19-290): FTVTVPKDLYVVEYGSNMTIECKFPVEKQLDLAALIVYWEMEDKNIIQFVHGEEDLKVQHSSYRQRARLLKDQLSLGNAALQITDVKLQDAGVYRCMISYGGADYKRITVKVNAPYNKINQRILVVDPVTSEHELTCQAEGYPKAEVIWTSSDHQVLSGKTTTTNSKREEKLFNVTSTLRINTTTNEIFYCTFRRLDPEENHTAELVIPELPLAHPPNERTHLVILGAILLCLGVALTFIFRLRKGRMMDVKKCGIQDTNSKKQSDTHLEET
T2 sequence (Q9NZQ7 19-238 limits assumed): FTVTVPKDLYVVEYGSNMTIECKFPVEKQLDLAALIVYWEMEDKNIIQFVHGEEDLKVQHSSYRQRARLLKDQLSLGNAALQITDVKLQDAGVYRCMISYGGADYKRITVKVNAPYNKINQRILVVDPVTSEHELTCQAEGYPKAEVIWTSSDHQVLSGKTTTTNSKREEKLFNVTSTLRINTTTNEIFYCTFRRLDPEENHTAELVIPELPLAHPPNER

For the compound `Cc1c(COc2cc(CNC[C@@H](O)C(=O)O)ccc2C(F)(F)F)cccc1-c1ccc2c(c1)OCCO2` [BMS-114], the IC50 – broadly, the midpoint of a concentration-inhibition curve – in the data set on PD-L1 (setting [3]) is 43 nM.

`Cc1c(COc2ccc(CN[C@H](CO)C(=O)O)c(OCc3cccc(C#N)c3)c2)cccc1-c1ccccc1` [BMS-1016]: the IC50 with PD-L1 (setting [3]) is 4.55 nM.

Take `CC(=O)NCCNCc1ccc(OCc2cccc(-c3ccccc3)c2C)cc1OCc1ccc(C(=O)O)cc1` [BMS-1043]: in the data set on PD-L1 (setting [3]), the IC50 is 239 nM.

For the compound `CC(=O)NCCNCc1ccc(OCc2cccc(-c3ccccc3)c2C)cc1OCc1ccccc1[N+](=O)[O-]` [BMS-1057], the IC50 with PD-L1 (setting [3]) was 986 nM.

On to `CC(=O)NCCNCc1ccc(OCc2cccc(-c3ccccc3)c2C)cc1OCc1cccc(OC(F)(F)F)c1` [BMS-1082], for which the IC50 in the data set on PD-L1 (setting [3]) is 828 nM.

Consider `CC(=O)NCCNCc1ccc(OCc2cccc(-c3ccccc3)c2C)cc1OCc1cc(C#N)ccc1F` [BMS-1095], for which the IC50 in the data set on PD-L1 (setting [3]) is 81.2 nM.

With `CC(=O)NCCNCc1ccc(OCc2cccc(-c3ccccc3)c2C)cc1OCc1ccc(F)c(C)c1` [BMS-1108], the IC50 in the data set on PD-L1 (setting [3]) is 624 nM.

On to `CC(=O)NCCNCc1ccc(Oc2cccc(-c3ccccc3)c2C)cc1OCc1cccc(NC(=O)OC(C)(C)C)c1` [BMS-1119], for which, in the data set on PD-L1 (setting [3]), the IC50 was 14200 nM.

Consider `Cc1c(COc2cc(OCc3cccc(C#N)c3)c(CN[C@H](CCO)C(=O)O)cc2Cl)cccc1-c1ccc2c(c1)OCCO2` [BMS-1205], for which the IC50 in the data set with PD-L1 (setting [3]) is 2.71 nM.

Regarding `Cc1c(COc2cc(OCc3cccc(C#N)c3)c(CNC(C(=O)O)C(C)(C)O)cc2Cl)cccc1-c1ccc2c(c1)OCCO2` (stereo not shown) [BMS-1210], the IC50 in the data set on PD-L1 (setting [3]) is 12.7 nM.

For `Cc1c(COc2cc(OCc3cccc(C#N)c3)c(CNC(CO)(Cc3ccccc3)C(=O)O)cc2Cl)cccc1-c1ccc2c(c1)OCCO2` (stereo not shown) [BMS-1218], the IC50 in the data set with PD-L1 (setting [3]) is 10.1 nM.

For `Cc1c(COc2cc(OCc3cccc(C#N)c3)c(CNC3(C(=O)O)CCN(C)CC3)cc2Cl)cccc1-c1ccc2c(c1)OCCO2` [BMS-1220], in the data set with PD-L1 (setting [3]), the IC50 is 6.07 nM.

As to `Cc1c(COc2ccc(CN[C@](C)(CO)C(=O)O)c(OCc3cccc(C#N)c3)c2Cl)cccc1-c1ccc2c(c1)OCCO2` [BMS-1239], in the data set with PD-L1 (setting [3]), the 50% inhibitory concentration (IC50) was 149 nM.

In the case of `Cc1c(COc2cc(OCc3cncc(C#N)c3)c(CNC[C@@H](O)CC(=O)O)cc2Cl)cccc1-c1ccc2c(c1)OCCO2` [BMS-1250], the IC50 with PD-L1 (setting [3]) was 1.19 nM.

On to `Cc1cc(CN2CCCC[C@@H]2C(=O)O)c(OCc2cncc(C#N)c2)cc1OCc1cccc(-c2ccc3c(c2)OCCO3)c1C` [BMS-1288], for which the IC50 with PD-L1 (setting [3]) is 1.88 nM.

Consider `Cc1cc(CNCCO)c(OCc2cncc(C#N)c2)cc1OCc1cccc(-c2ccc3c(c2)OCCO3)c1C#N` [BMS-1306], for which, in the data set with PD-L1 (setting [3]), the IC50 was 0.92 nM.

Consider `Cc1c(COc2cc(OCc3cncc(C(=O)O)c3)c(CN[C@@H](CCCN)C(=O)O)cc2Cl)cccc1-c1ccc2c(c1)OCCO2` [BMS-2002], for which the IC50 in the data set on PD-L1 (setting [3]) was 10 nM.

Consider `Cc1c(COc2cc(OCc3cncc(C#N)c3)c(CN[C@@H](Cc3cccnc3)C(=O)O)cc2Cl)cccc1-c1ccc2c(c1)OCCO2` [BMS-2010], for which the IC50 in the data set on PD-L1 (setting [3]) is 50 nM.

`Cc1c(COc2cc(OCc3cncc(S(C)(=O)=O)c3)c(CO)cc2Cl)cccc1-c1ccc2c(c1)OCCO2` [BMS-3013]: the IC50 with PD-L1 (setting [3]) was 80 nM.

For `Cc1c(COc2cc(OCc3cncc(C#N)c3)c(CN[C@H](CC(N)=O)C(=O)O)cc2Cl)cccc1-c1ccc2c(c1)OCCO2` [BMS-3024], the IC50 with PD-L1 (setting [3]) was 5.54 nM.

Take `COc1ccccc1COc1cc(OCc2cccc(-c3ccc4c(c3)OCCO4)c2C)c(Cl)cc1CN1CCCC[C@H]1C(=O)O` [BMS-3029]: the IC50 in the data set with PD-L1 (setting [3]) was 2350 nM.

Regarding `Cc1c(COc2cc(OCc3ccnc(C#N)c3)c(CN(C)[C@H](CO)C(=O)O)cc2Cl)cccc1-c1ccc2c(c1)OCCO2` [Compound 5a, N-(5-Chloro-2-((2-cyanopyridin-4-yl)methoxy)-4-((3-(2,3-dihydrobenzo[b][1,4]dioxin-6-yl)-2-methylbenzyl)oxy)benzyl)-N-methyl-D-serine], the “% applied activity ([^89Zr]Zr-atezolizumab bound)” value came out at 0.2 % applied activity in data set [1] (preincubation with 5,000 nM blocker) and 4.2 % applied activity at PD-L1 (CHO-hPD-L1 cells) (CHO-hPD-L1 cells, preincubation with 5,000 nM blocker). Further, the EC50 (as a rule, the concentration that produces a half-maximal response) in the data set on CHO-hPD-L1 cells (read-out: Relative EC50 (cell viability, MTT)) was 20600 nM. Also, the chromatographic logD (commonly a lipophilicity value derived from retention on a column) in data set [2] is 3.36 ± 0.04. In addition, the “blockade of antibody binding” value on PD-L1 (CHO-hPD-L1 cells) (highest noncytotoxic concentration, CHO-hPD-L1 cells) amounted to 50%. For the same compound, at PD-L1 (CHO-hPD-L1 cells) (range contingent on published KD values of atezolizumab, read-out: Ki (Cheng–Prusoff)), the Ki (as a rule, a measure of affinity in units of concentration, obtained from inhibition or displacement) lay in the range of 700 to 4500 nM. In addition, on human PD-L1 (IC50 ratio, pairs 4c vs 5a, 4c vs 5b, 4e vs 5c, 4e vs 5d), the “fold decrease in affinity by methylation at R3*” value was 1.02 fold. The IC50 on human PD-L1 is 6.2 ± 0.6 nM.

In the case of `CC(=O)N1CCN(Cc2cc(Cl)c(OCc3cccc(-c4ccc5c(c4)OCCO5)c3C)cc2OCc2cccc(C#N)c2)C1=O` [Compound 5e, 3-((2-((3-Acetyl-2-oxoimidazolidin-1-yl)methyl)-4-chloro-5-((3-(2,3-dihydrobenzo[b][1,4]dioxin-6-yl)-2-methylbenzyl)oxy)phenoxy)methyl)benzonitrile], in data set [2], the “μHPLC logD” value was determined as 5.6 ± 0.4 and the chromatographic logD stood at 5.61 ± 0.37. Besides, the half-maximal inhibitory concentration (IC50) at human PD-L1 amounted to 589 ± 178 nM.

On to `Cc1c(COc2cc(OCc3ccnc(C#N)c3)c(CN(C)CCO)cc2Cl)cccc1-n1cccc1` [Compound 5f, 4-((4-Chloro-2-(((2-hydroxyethyl)(methyl)amino)methyl)-5-((2-methyl-3-(1H-pyrrol-1-yl)benzyl)oxy)phenoxy)methyl)picolinonitrile], for which, in data set [2], the “μHPLC logD” value is recorded as 4.5 ± 0.2 and the chromatographic logD was 4.54 ± 0.21. Moreover, at human PD-L1 (IC50 ratio, pairs 4c vs 4m, 4e vs 4n, 4f vs 4o, 5c vs 5f), the “fold reduction of affinity, pyrrole at R1 vs 1,4-benzodioxanyl analogue” value is 1.61 fold. Further, on human PD-L1, the IC50 worked out at 16 ± 4 nM.

In turn, `Cc1c(COc2cc(OCc3ccnc(C#N)c3)c(CN3CCOC3CF)cc2Cl)cccc1-c1ccc2c(c1)OCCO2` (stereo not shown) [Compound 5g, 4-((4-Chloro-5-((3-(2,3-dihydrobenzo[b][1,4]dioxin-6-yl)-2-methylbenzyl)oxy)-2-((2-(fluoromethyl)oxazolidin-3-yl)methyl)phenoxy)methyl)picolinonitrile] showed a chromatographic logD in data set [2] above 5.75. The IC50 at human PD-L1 was determined as 12 ± 2 nM.

`Cc1c(COc2cc(OCc3ccnc(C#N)c3)c(CN3CCCC[C@H]3C(=O)OCCF)cc2Cl)cccc1-c1ccc2c(c1)OCCO2` [Compound 5h, 2-Fluoroethyl (S)-1-(5-Chloro-2-((2-cyanopyridin-4-yl)methoxy)-4-((3-(2,3-dihydrobenzo[b][1,4]dioxin-6-yl)-2-methylbenzyl)oxy)benzyl)piperidine-2-carboxylate]: the chromatographic logD in data set [2] is above 5.75. Further, the “fold decrease in affinity by fluoroethylation / fluoroethyl carbamylation at R3*” value on human PD-L1 (IC50 ratio) came to 265 fold. On human PD-L1, the IC50 is 1290 nM.

`Cc1c(COc2cc(OCc3ccnc(C#N)c3)c(CNCCF)cc2Cl)cccc1-c1ccc2c(c1)OCCO2` [Compound 5i, 4-((4-Chloro-5-((3-(2,3-dihydrobenzo[b][1,4]dioxin-6-yl)-2-methylbenzyl)oxy)-2-(((2-fluoroethyl)amino)methyl)phenoxy)methyl)picolinonitrile]: in data set [2], the “μHPLC logD” value turned out to be 5.2 ± 0.3 and the chromatographic logD was determined as 5.21 ± 0.31. Also, the 50% inhibitory concentration (IC50) at human PD-L1 was found to be 12 ± 1 nM.

`CC(=O)NCCN(Cc1cc(Cl)c(OCc2cccc(-c3ccc4c(c3)OCCO4)c2C)cc1OCc1cccc(C#N)c1)C(=O)OCCF` [Compound 5j, 2-Fluoroethyl (2-acetamidoethyl)(5-chloro-2-((3-cyanobenzyl)oxy)-4-((3-(2,3-dihydrobenzo[b][1,4]dioxin-6-yl)-2-methylbenzyl)oxy)benzyl)carbamate] displayed a chromatographic logD in data set [2] of 4.9 ± 0.3. Besides, at human PD-L1 (IC50 ratio), the “fold decrease in affinity by fluoroethylation / fluoroethyl carbamylation at R3*” value is 160 fold. The IC50 at human PD-L1 amounted to 1700 nM.

For the compound `N#Cc1cncc(COc2cc(OCc3cccc(-c4ccccc4)c3Br)c(Cl)cc2CN2CCCC[C@H]2C(=O)O)c1` [Example 8], the IC50 in the data set on PD-L1 (setting [4]) is 0.01 to 0.1 nM.

Take `N#Cc1cc(COc2cc(OCc3cccc(-c4ccc5c(c4)OCCO5)c3Br)c(Cl)cc2CN2CCCC[C@H]2C(=O)O)ccn1` [Example 15]: the IC50 in the data set with PD-L1 (setting [4]) was 0.001 to 0.01 nM.

As to `COc1cc(OCc2cccc(-c3ccccc3)c2C)cc(OC)c1CN1CCCC[C@H]1C(=O)O` [PD-1/PD-L1 Inhibitor 1, reference compound], the EC50 in the data set with CHO-hPD-L1 cells (read-out: EC50 (cell viability, MTT)) was 52300 nM.

Regarding “atezolizumab: high-affinity anti-PD-L1 antibody used for reference [reference compound]”, the “% applied activity ([^89Zr]Zr-atezolizumab bound)” value in data set [1] (preincubation with 200 nM blocker) was determined as 0.1 % applied activity. Further, in the data set with human PD-L1, the IC50 was found to be 4.1 nM.
